The source of these data is ChEMBL document CHEMBL3244419.

Assay [1] concerns NG108-15. The settings on record: 0.5 uM.
Description: Antagonist activity at opioid receptor in mouse/rat NG108-15 cells assessed as reversal of morphine-induced inhibition of adenylate cyclase activity at 0.5 uM
The species entered for assay [2] is Cavia porcellus. The settings on record: Ileum, 10 nM.
For assay [3], the species on record is Cavia porcellus. The assay is described as follows: Agonist activity at opioid receptor in electrically stimulated guinea pig ileum at <50 uM. It counts as tissue-based.
For assay [4], the system named is NG108-15. The assay is described as follows: Agonist activity at opioid receptor in mouse/rat NG108-15 cells assessed by adenylate cyclase assay. The class given is cell-based.
For assay [5], the species on record is Cavia porcellus. The experiment in a line: Agonist activity at opioid receptor in electrically stimulated guinea pig ileum at >=50 uM. The class given is tissue-based.

Calls of active or inactive are those of the source. The calls are words filed in the database; no cut-off is given here.

As to `C=CCN1CC[C@]23c4c5ccc(O)c4O[C@H]2C(=O)CC[C@@]3(O)[C@H]1C5`, the inhibition result with NG108-15 [1] and in the assay filed under Cavia porcellus [2] was “Active” in each case.
Regarding `C=CCN1CC[C@@]23c4c5ccc(O)c4O[C@@H]2C(=O)CC[C@]3(O)[C@@H]1C5`, the outcome in the assay listed under Cavia porcellus [3], in the assay on NG108-15 [4] and in the assay listed under Cavia porcellus [5] was inactive.
